Test results as given in patent EP0585371B1, “AROMATIC OLIGOMERIC COMPOUNDS USEFUL AS MIMICS OF BIOACTIVE MACROMOLECULES” (RHONE-POULENC RORER INTERNATIONAL (HOLDINGS) INC., priority 1991, dated 1992).

Legend:
vWF Binding to Gp1b = molecular target: T1, vWF Binding to Gp1b (Homo sapiens, UniProt P04275+P07359); assay: Inhibition of ristocetin-induced binding of 125I-vWF to formalin-fixed platelets; conditions: ristocetin 1.0 mg/ml; for Ristocetin-Induced Inhibition of vWF Binding to Gp1b: at 100 µg/ml
T1 construct: multimeric vWF (isolated from human plasma cryoprecipitate); Formalin-fixed platelets, prepared according to the method of MacFarlane; from tissue; host or cells: vWF from human plasma cryoprecipitate; GPIb on formalin-fixed platelets
Experimental: The binding of vWf (vonWillebrand Factor) to glycoprotein Ib is measured in one of two experimental systems, in the presence of either ristocetin or botrocetin as modulators of binding. The ristocetin modulated binding is described herein.
Formalin-fixed platelets, prepared according to the method of MacFarlane, D. et al., Thromb. Diath. Haemorrh. 34, 306-308 (1975), were preincubated at room temperature for 15 minutes with specified dilutions of oligomers according to the present invention. Ristocetin, (Sigma, St. Louis, MO) diluted to a final concentration of 1.0 mg/ml, and ^125I-labelled multimeric vWF (isolated from human plasma cryoprecipitate according to the method of Fulcher, C.A. et al. Proc. Natl. Acad. Sci. USA, 79, 1648-1652 (1982), and labelled according to the method of Fraker, P.J. et al. Biochem. Biophys. Res. Commun., 80, 849-857 (1978)) were then added to the incubation mixture, and the amount of ^125I- vWF bound to the platelets was determined. ^125I-vWF binding to the platelets was referenced against 100% binding which was defined as the amount of ^125I- vWF bound in the absence of added oligomer compound. The method for measuring vWF binding is reported in detail in Ruggeri et al., J. Clin. Invest., 72, 1-12, (1983), herein incorporated by reference.

normal pooled plasma = assay: Anticoagulation activity, Activated Partial Thromboplastin Time (APTT) test; conditions: concentration required to double clotting time
Experimental: The following test measures anticoagulant activity of the oligomers of the present invention and utilizes the Activated Partial Thromboplastin Time (APTT) test, with the following procedures.
To an assay cuvette is added 100 µl of normal pooled plasma (George King Biomedical Inc., Kansas) and […] of a solution containing the test compound in aqueous 50 mM Tris hydrochloride at pH 7.5 (0.2 mg of sample in one ml buffer). The sample is placed in a MLA coagulation timer which automatically maintains the sample at 37°C for 2.5 minutes, 100 µl of actin activated cephaloplastin reagent is injected, kept 5 minutes, 100 µl of 35 mM CaCI is injected, and clot formation is determined photometrically and the clotting time recorded. Each example is examined at a variety of concentrations, generally from about .025 mg/ml to about 1 mg/ml, and the clotting times are graphed as a function of concentration. From the graphic results, the concentration required to double clotting time (ICDCT) is calculated by linear interpolation.

[1] = system: human fixed thrombin activated platelets; assay: Platelet aggregation inhibition (fibrinogen-induced); format: cell-based; conditions: human fibrinogen added
Experimental: The method for measuring platelet aggregation inhibition is essentially that of Ruggeri, et al., Proc. Natl. Acad. Sci. USA, 83, 5708-5712 (1986), using formalin-fixed platelets as prepared by Plow, et al., Proc. Natl. Acad. Sci. USA, 79, 3711-3715 (1982). A given amount of the compound of the present invention or other compound to be tested (10 to 100 µl of a 1 mg/ml solution) is incubated at 37°C with 400 µl of human fixed thrombin activated platelets for 2 minutes. 12.5 µl of human fibrinogen solution is added and aggregation is monitored using a platelet aggregation profiler (Model PAP-4). Controls consist of fibrinogen added to incubated platelets and the resulting aggregation is considered as 100%. Percent inhibition in the presence of a given concentration of test compound versus concentration of the compound is plotted and the concentration required to give 50% inhibition (IC50) is determined.

[2] = molecular target: T2, ESb mouse lymphoma heparanase (Mus musculus, UniProt Q6YGZ1); assay: Inhibition of heparanase activity (degradation of labeled ECM heparan sulfate); format: biochemical; conditions: 24 hours incubation with labeled ECM
T2 construct: endogenous in cells; host or cells: ESb mouse lymphoma cells
T2 sequence (Q6YGZ1 28-535): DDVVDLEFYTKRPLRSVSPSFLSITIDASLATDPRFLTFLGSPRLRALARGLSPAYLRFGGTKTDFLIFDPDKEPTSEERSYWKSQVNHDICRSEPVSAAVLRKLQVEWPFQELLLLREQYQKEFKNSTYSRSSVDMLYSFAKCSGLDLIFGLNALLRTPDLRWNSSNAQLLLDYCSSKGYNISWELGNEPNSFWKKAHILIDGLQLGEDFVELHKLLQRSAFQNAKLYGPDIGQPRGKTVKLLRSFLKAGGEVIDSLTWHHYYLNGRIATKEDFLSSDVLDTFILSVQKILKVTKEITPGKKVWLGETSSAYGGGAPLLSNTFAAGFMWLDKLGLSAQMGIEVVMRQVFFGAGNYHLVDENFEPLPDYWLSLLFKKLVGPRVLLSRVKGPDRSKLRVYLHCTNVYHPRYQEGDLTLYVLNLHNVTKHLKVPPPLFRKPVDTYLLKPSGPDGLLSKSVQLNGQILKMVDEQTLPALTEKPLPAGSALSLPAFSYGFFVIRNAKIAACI
Experimental: Heparanase is an endoglucuronidase capable of degrading […] (HS) at specific intrachain sites.
The ability of compounds of the present invention to inhibit lymphomacell derived heparanase is tested in the assay system described by Vlodavsky et al., Cancer Research 43, 2704-2711 (1983). […] labeled ECM is incubated for 24 hours with ESb mouse lymphoma heparanase in the presence of various concentrations of the oligomers tested. Degradation of the HS is followed by gel filtration of the supematants. Heparanase activity is expressed as the total amount of labeled low-molecular-weight fragments released from the EMC substrate.

T1 sequence (P04275 764-2813 limits assumed): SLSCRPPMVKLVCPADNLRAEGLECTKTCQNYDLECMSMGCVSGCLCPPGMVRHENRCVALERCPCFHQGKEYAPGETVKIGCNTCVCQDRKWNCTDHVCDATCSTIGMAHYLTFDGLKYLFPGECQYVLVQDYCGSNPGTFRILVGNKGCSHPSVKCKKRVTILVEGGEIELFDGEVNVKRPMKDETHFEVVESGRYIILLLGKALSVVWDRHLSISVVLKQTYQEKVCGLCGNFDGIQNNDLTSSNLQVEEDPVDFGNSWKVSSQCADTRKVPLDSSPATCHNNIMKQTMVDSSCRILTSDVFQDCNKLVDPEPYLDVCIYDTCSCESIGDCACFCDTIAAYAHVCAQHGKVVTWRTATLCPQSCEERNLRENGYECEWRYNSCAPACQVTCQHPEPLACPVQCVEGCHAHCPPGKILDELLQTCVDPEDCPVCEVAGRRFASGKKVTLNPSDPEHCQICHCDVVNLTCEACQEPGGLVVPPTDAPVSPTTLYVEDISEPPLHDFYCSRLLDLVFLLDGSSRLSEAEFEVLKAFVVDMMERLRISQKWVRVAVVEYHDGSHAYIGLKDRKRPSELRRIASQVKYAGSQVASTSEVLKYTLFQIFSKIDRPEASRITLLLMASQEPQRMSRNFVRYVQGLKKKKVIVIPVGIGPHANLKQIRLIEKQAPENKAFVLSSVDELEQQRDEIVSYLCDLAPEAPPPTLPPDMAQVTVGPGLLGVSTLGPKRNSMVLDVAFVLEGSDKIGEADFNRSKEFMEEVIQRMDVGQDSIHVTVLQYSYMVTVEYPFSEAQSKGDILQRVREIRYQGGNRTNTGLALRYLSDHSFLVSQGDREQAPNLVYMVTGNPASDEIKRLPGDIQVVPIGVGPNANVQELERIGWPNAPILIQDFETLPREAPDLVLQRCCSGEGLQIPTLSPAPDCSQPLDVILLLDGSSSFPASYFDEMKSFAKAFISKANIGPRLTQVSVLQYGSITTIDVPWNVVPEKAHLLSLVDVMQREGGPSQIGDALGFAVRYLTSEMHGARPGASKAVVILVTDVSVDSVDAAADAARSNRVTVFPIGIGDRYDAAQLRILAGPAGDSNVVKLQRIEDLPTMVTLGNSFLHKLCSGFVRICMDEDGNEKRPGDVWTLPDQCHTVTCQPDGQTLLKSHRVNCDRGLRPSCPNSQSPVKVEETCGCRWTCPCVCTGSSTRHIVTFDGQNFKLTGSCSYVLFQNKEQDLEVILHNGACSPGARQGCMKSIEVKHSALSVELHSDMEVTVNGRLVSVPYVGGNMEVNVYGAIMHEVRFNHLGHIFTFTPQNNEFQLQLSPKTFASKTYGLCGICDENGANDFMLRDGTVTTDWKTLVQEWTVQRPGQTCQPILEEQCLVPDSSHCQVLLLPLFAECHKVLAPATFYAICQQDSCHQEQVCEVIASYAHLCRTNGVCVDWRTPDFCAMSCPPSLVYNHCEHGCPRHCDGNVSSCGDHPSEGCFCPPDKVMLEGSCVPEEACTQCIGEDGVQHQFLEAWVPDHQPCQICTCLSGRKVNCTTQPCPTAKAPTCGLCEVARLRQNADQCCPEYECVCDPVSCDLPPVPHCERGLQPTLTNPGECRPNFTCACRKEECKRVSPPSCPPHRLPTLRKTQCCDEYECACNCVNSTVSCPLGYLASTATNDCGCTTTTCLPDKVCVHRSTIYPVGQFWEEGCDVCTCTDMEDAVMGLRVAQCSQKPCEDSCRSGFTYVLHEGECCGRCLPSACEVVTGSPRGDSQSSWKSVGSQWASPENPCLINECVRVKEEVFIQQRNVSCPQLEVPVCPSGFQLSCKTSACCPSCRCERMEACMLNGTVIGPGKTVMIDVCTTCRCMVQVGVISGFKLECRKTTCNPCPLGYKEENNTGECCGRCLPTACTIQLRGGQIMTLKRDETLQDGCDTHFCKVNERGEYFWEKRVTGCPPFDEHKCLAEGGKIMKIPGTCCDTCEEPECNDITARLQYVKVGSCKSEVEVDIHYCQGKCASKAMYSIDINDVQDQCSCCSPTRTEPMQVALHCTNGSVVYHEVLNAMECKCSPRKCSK
T1 sequence (P07359 17-652): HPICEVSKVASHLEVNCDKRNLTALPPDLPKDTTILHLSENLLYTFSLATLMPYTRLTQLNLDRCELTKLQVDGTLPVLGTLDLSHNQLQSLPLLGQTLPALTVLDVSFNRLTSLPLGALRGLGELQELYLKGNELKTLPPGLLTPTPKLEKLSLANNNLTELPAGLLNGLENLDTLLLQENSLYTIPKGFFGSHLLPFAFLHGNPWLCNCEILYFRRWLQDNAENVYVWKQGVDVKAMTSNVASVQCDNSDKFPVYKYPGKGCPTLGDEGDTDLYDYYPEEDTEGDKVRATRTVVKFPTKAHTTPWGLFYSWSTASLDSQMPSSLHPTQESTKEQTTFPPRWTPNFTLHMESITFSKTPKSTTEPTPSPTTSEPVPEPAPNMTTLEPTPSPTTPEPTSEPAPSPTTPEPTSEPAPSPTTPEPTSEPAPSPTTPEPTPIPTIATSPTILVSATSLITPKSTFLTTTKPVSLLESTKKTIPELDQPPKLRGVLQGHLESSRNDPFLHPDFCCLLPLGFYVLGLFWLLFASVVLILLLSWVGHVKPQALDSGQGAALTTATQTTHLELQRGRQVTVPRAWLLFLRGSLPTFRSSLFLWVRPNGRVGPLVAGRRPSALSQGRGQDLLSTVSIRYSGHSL

| Compound | Ristocetin-Induced Inhibition of vWF Binding to Gp1b IC50 (vWF Binding to Gp1b) [µg/mL] | IC50 (vWF Binding to Gp1b) [µM] | Platelet Aggregation IC50 [1] [µg/mL] | % Inhibition of Heparanase Activity (5µg/ml) [2] [%] | Ristocetin-Induced Inhibition of vWF Binding to Gp1b (vWF Binding to Gp1b) [% at 100 µg/ml] | APTT ICDCT (normal pooled plasma) [µg/mL] |
| --- | --- | --- | --- | --- | --- | --- |
| COc1ccc(CCC(=O)O)c(COc2cc(CCC(=O)O)c(COc3cc(CCC(=O)O)c(COc4cc(CCC(=O)O)c(COc5cc(CCC(=O)O)ccc5OC)cc4OC)cc3OC)cc2OC)c1 [Ex12, Step 11, 2-[4-[4-[4-[[5-(2-carboxyethyl)-2-methoxy]phenoxymethyl]-[5-(2-carboxyethyl)-2-methoxy]phenoxymethyl]-[5-(2-carboxyethyl)-2-methoxy]phenoxymethyl]-[5-(2-carboxyethyl)-2-methoxy]phenoxymethyl]-4-methoxyhydrocinnamic acid] | >100 |  |  |  |  | >250 |
| O=C(O)CCc1ccc(O)c(Cc2cc(CCC(=O)O)cc(Cc3cc(CCC(=O)O)cc(Cc4cc(CCC(=O)O)ccc4O)c3O)c2O)c1 [Ex 1, Step 3, bis-[5-(2-carboxyethyl)-3-[5-(2-carboxyethyl)-2-hydroxybenzyl]2-hydroxyphenyl]methane] |  | > 143 |  |  |  | >250 |
| COC(=O)CCc1cc(OCc2cc(OC)c(OCc3cc(OC)c(OCc4cc(OC)c(OC(C)=O)cc4CCC(=O)OC)cc3CCC(=O)OC)cc2CCC(=O)OC)c(OC)cc1CO [Ex 10, Step 13] |  |  |  |  |  | >250 |

Second part, led by results:

| Ristocetin-Induced Inhibition of vWF Binding to Gp1b IC50 (vWF Binding to Gp1b) [µg/mL] | IC50 (vWF Binding to Gp1b) [µM] | Platelet Aggregation IC50 [1] [µg/mL] | % Inhibition of Heparanase Activity (5µg/ml) [2] [%] | Ristocetin-Induced Inhibition of vWF Binding to Gp1b (vWF Binding to Gp1b) [% at 100 µg/ml] | Compound | APTT ICDCT (normal pooled plasma) [µg/mL] |
| --- | --- | --- | --- | --- | --- | --- |
|  |  | >1000 | 20 |  | COc1cc(C)c(CCC(=O)O)cc1Cc1cc(OC)c(Cc2cc(OC)c(Cc3cc(OC)c(Cc4cc(OC)c(Cc5cc(OC)c(Cc6cc(OC)c(Cc7cc(O)ccc7CCC(=O)O)cc6CCC(=O)O)cc5CCC(=O)O)cc4CCC(=O)O)cc3CCC(=O)O)cc2CCC(=O)O)cc1CCC(=O)O [Ex 5, Step 2, 5-[4-[4-[4-[4-[4-[4-[[2-(2-carboxyethyl)-5-hydroxy]benzyl]-[2-(2-carboxyethyl)-5-methoxy]benzyl]-[2-(2-carboxyethyl)-5-methoxy]benzyl]-[2-(2-carboxyethyl)-5-methoxy]benzyl]-[2-(2-carboxyethyl)-5-methoxy]benzyl]-[2-(2-carboxyethyl)-5-methoxy]benzyl]-[2-(2-carboxyethyl)-5-methoxy]benzyl]-4-methoxy-2-methylhydrocinnamic acid] | 37 |
|  |  | >1000 |  | 42 | O=C(O)CCc1cc(Cc2cc(O)c(Cc3cc(O)c(Cc4cc(O)ccc4CCC(=O)O)cc3CCC(=O)O)cc2CCC(=O)O)c(O)cc1CCc1cc(O)c(Cc2cc(O)c(Cc3cc(O)c(Cc4cc(O)ccc4CCC(=O)O)cc3CCC(=O)O)cc2CCC(=O)O)cc1CCC(=O)O [Ex 6, 1,2-bis-[4-[4-[4-[[2-(2-carboxyethyl)-5-hydroxy]benzyl]-[2-(2-carboxyethyl)-5-hydroxy]benzyl]-(2-(2-carboxyethyl)-5-hydroxy]benzyl]-[2-(2-carboxyethyl)-5-hydroxy]phenyl]ethane] | 387 |
|  |  |  |  | 17 | COc1cc(CCc2cc(OC)c(Cc3cc(OC)c(Cc4cc(OC)c(Cc5cc(O)ccc5CCC(=O)O)cc4CCC(=O)O)cc3CCC(=O)O)cc2CCC(=O)O)c(CCC(=O)O)cc1Cc1cc(OC)c(Cc2cc(OC)c(Cc3cc(O)ccc3CCC(=O)O)cc2CCC(=O)O)cc1CCC(=O)O [Ex 7, 1,2-bis-[4-[4-[4-[[2-(2-carboxyethyl)-5-hydroxy]benzyl]-[2-(2-carboxyethyl)-5-methoxy]benzyl]-[2-(2-carboxyethyl)-5-methoxy]benzyl]-[2-(2-carboxyethyl)-5-methoxy]phenyl]ethane] | 500 |
|  |  |  | 70 |  | COc1cc(Cc2cc(CCC(=O)O)c(C)cc2O)c(CCC(=O)O)cc1Cc1cc(OC)c(Cc2cc(OC)c(Cc3cc(OC)c(Cc4cc(OC)c(Cc5cc(OC)c(Cc6cc(OC)c(Cc7cc(OC)c(Cc8cc(OC)c(Cc9cc(OC)c(Cc%10cc(OC)c(Cc%11cc(OC)c(Cc%12cc(OC)c(Cc%13cc(OC)c(Cc%14cc(O)ccc%14CCC(=O)O)cc%13CCC(=O)O)cc%12CCC(=O)O)cc%11CCC(=O)O)cc%10CCC(=O)O)cc9CCC(=O)O)cc8CCC(=O)O)cc7CCC(=O)O)cc6CCC(=O)O)cc5CCC(=O)O)cc4CCC(=O)O)cc3CCC(=O)O)cc2CCC(=O)O)cc1CCC(=O)O [Ex 8] | 35 |
|  |  | 319 | 52 |  | COc1cc(CCc2cc(OC)c(Cc3cc(OC)c(Cc4cc(OC)c(Cc5cc(OC)c(Cc6cc(OC)c(Cc7cc(OC)c(Cc8cc(OC)c(Cc9cc(O)ccc9CCC(=O)O)cc8CCC(=O)O)cc7CCC(=O)O)cc6CCC(=O)O)cc5CCC(=O)O)cc4CCC(=O)O)cc3CCC(=O)O)cc2CCC(=O)O)c(CCC(=O)O)cc1Cc1cc(OC)c(Cc2cc(OC)c(Cc3cc(OC)c(Cc4cc(OC)c(Cc5cc(OC)c(Cc6cc(OC)c(Cc7cc(O)ccc7CCC(=O)O)cc6CCC(=O)O)cc5CCC(=O)O)cc4CCC(=O)O)cc3CCC(=O)O)cc2CCC(=O)O)cc1CCC(=O)O [Ex 9, 1,2-bis-[4-[4-[4-[4-[4-[4-[4-[[2-(2-carboxyethyl)-5-hydroxy]benzyl]-[2-(2-carboxyethyl)-5-methoxy]benzyl]-[2-(2-carboxyethyl)-5-methoxy]benzyl]-[2-(2-carboxyethyl)-5-methoxy]benzyl]-[2-(2-carboxyethyl)-5-methoxy]benzyl]-[2-(2-carboxyethyl)-5-methoxy]benzyl]-[2-(2-carboxyethyl)-5-methoxy]benzyl]-[2-(2-carboxyethyl)-5-methoxy]phenyl]ethane] | 105 |
